Results from paper PMC12165062, “High‐Throughput Fluorescence Screening Enables Globally Consistent Identification of ABA Signaling Modulators” (Advanced Science, 2025).
Where two headings read alike, the source gives them in different places.

Tests used:
PYR1 [1] = target: T1, PYR1 (Arabidopsis thaliana, UniProt O49686); assay: biochemical; set-up: Isothermal titration calorimetry of compound binding to PYR1; settings: read-out: ITC/Kd/μM
T1 sequence (O49686 1-191): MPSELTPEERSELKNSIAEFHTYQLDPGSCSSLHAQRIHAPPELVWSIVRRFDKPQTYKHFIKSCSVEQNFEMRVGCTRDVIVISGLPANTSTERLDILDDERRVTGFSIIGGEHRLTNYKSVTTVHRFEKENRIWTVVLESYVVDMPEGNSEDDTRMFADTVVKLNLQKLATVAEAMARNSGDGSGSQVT
Method: (§1) To validate the practicality of GhitFluors platform for global high‐throughput identification of ABA receptor modulators, we used this platform to analyze a library comprising several hundreds‐amide compounds. First, we evaluated K d values of several hundreds amide‐compounds using fluorescence competition assays. […] Meanwhile, binding affinities of the six compounds to PYR1 were evaluated using ITC or BLI assays to validate the screening results. […] As depicted in Figure 4a, a significant decrease in fluorescence intensity was observed as the concentration of diopyridin increased, ranging from 30 to 350 µM. When the concentration of diopyridin reached 350 µM, fluorescence intensity was close to the threshold. […] In addition, we also tested the binding affinities of diopyridin with other representative PYLs, including dimer (PYL1, PYL2), and monomer (PYL4, PYL5, and PYL10‐PYL12) that had K d values ranging from 0.97 to 32.8 µM, and 1.6 to 243.7 µM, respectively (Figure S20, Supporting Information).

PYR1 [2] = target: T1, PYR1; assay: biochemical; set-up: Fluorescence competition displacing lebactin (1 uM) from PYR1 (8 uM); Kd from double-log titration fit; settings: 1 uM lebactin, 8 uM PYR1; read-out: F(GhitFluors)/Kd/μM
Source text: as §1, with “Validation of the Fluorescent Chemosensor‐Based Screening Platform In‐house Chemical Database Screening Assay To” for “To”

PYR1 [3] = target: T1, PYR1; assay: biochemical; set-up: Bio-layer interferometry of compound binding to PYR1; settings: read-out: BLI/Kd/μM
Method: To validate the practicality of GhitFluors platform for global high‐throughput identification of ABA receptor modulators, we used this platform to analyze a library comprising several hundreds‐amide compounds. First, we evaluated K d values of several hundreds amide‐compounds using fluorescence competition assays. […] Meanwhile, binding affinities of the six compounds to PYR1 were evaluated using ITC or BLI assays to validate the screening results. […] As depicted in Figure 4a, a significant decrease in fluorescence intensity was observed as the concentration of diopyridin increased, ranging from 30 to 350 µM. When the concentration of diopyridin reached 350 µM, fluorescence intensity was close to the threshold. […] It should have a low fluorescence background, high fluorescence shift and stability, and appropriate binding affinity, as these determine the accuracy, feasibility and, the sensitivity of this platform, respectively. […] First, we evaluated the fluorescence background of all chemosensors by using 310–370 nm as excitation wavelength. […] In addition, the binding affinity of compound 1a (lebactin) for PYR1 was evaluated by bio‐layer interferometry (BLI). […]

[4] = target: T2, PYR-HAB1 (PYR1 with HAB1) (Arabidopsis thaliana, UniProt O49686); assay: Ser/Thr phosphatase assay (Promega), HAB1 inhibition via PYR1; format: biochemical
T2 construct: HAB1 construct not described in main text; with Protein phosphatase 2C 16
T2 sequence (O49686 1-191): T1 sequence (O49686 1-191)
T2 sequence (Q9CAJ0 1-511 partner): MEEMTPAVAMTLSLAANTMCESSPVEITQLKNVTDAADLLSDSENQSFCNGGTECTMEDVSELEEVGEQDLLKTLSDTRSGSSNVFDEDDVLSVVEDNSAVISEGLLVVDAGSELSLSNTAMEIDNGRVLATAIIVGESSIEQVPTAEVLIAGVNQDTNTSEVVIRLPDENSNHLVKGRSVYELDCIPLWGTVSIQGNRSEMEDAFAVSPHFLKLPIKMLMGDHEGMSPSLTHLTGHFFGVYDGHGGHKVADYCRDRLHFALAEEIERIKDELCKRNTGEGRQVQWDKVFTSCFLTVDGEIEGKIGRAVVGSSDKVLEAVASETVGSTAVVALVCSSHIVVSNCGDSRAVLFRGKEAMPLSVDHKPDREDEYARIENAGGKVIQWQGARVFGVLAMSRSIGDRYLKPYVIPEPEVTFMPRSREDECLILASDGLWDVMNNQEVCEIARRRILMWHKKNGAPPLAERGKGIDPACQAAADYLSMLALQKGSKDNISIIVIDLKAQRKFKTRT

Row | Kd (PYR1 [1]) [µM] | Kd (PYR1 [2]) [µM] | SMILES | Kd (PYR1 [3]) [µM] | inhibition at 50 µM [4] [%] | inhibition at 25 µM [4] [%]
1 | 7.06 ± 1.92 | 8.25 ± 0.25 | O=[N+]([O-])c1cc(Br)cc([N+](=O)[O-])c1NS(=O)(=O)c1cccc(Cl)c1 [361a, N-(4-bromo-2,6-dinitrophenyl)-3-chlorobenzenesulfonamide] | – | – | –
2 | 14.9 ± 3.29 | 4.73 ± 0.37 | Cc1ccccc1S(=O)(=O)Nc1c([N+](=O)[O-])cc(Br)cc1[N+](=O)[O-] [368a, N-(4-bromo-2,6-dinitrophenyl)-2-methylbenzenesulfonamide] | – | – | –
3 | 9.51 ± 2.19 | 8.43 ± 0.75 | O=[N+]([O-])c1cc(Br)cc([N+](=O)[O-])c1NS(=O)(=O)c1ccccc1Cl [470a, N-(4-bromo-2,6-dinitrophenyl)-2-chlorobenzenesulfonamide] | – | – | –

Further lines, the compound ahead of its results:

Row | SMILES | Kd (PYR1 [1]) [µM] | Kd (PYR1 [2]) [µM] | Kd (PYR1 [3]) [µM] | inhibition at 50 µM [4] [%] | inhibition at 25 µM [4] [%]
4 | CC(C)(C)c1ccc(S(=O)(=O)Nc2c([N+](=O)[O-])cc(Br)cc2[N+](=O)[O-])cc1 [145a, N-(4-bromo-2,6-dinitrophenyl)-4-(tert-butyl)benzenesulfonamide] | 171 ± 3.76 | 37.8 ± 1.31 | – | – | –
5 | COc1ccc(C(=O)Nc2cccc3c2C(=O)N(C2CCC(=O)NC2=O)C3=O)cc1OC (centres unmarked) [173b, N-(2(2,6-dioxopiperidin-3-yl)-1,3-dioxoisoindolin-4-yl)-3,4-dimethoxybenzamide] | – | 1.55 ± 0.11 | 9.5 ± 0.75 | – | –
6 | COc1ccc(C(=O)Nc2cccc3c2C(=O)N(C2CCC(=O)NC2=O)C3=O)cc1OC (centres unmarked) [173b, diopyridin] | – | – | – | > 80 | –
7 | O=[N+]([O-])c1cc(Br)cc([N+](=O)[O-])c1NS(=O)(=O)c1cccc(F)c1 [260a, N-(4-bromo-2,6-dinitrophenyl)-3-fluorobenzenesulfonamide] | 7.59 ± 1.62 | 3.96 ± 0.4 | – | – | –
8 | CC1=CC(=O)CC(C)(C)[C@@]1(O)/C=C/C(C)=C\C(=O)O [ABA] | – | – | – | – | > 80
